Experimental data published in patent US20150160193A1, “TUMOR CELL ISOLATION/PURIFICATION PROCESS AND METHODS FOR USE THEREOF” (DIATECH ONCOLOGY, priority 2012, published 2015).
Like-named read-outs stand apart in the source and are kept apart here.

Legend:
[1] = test system: Purified breast cancer cells from 67 patient (Pt) biopsies; assay: MiCK assay of drug-induced apoptosis, breast cancer specimens; type: cell-based, human; conditions: for KU Mean / KU Median: kinetic units of apoptosis; for KU Mean: mean over N patient samples (at least 9 per drug); for KU Median: median over N patient samples; for Mean Difference (95% CI) of KU vs Carbo: drug minus Carbo; for % >1: share of samples with KU >1; for % >3: share of samples with KU >3; for Mean Difference (95% CI) of KU vs Vincristine: drug minus Vincristine
Method: Apoptosis(KU)=(VmaxDrug Candidate Treated−VmaxControl)×60×X/(ODcontrol−ODblank)
Within 24 to 48 hours of collection, the specimen was minced, digested with 0.25% trypsin and 0.08% DNase for 1-2 hours at 37 C.°, and then filtered through a 100 micrometer cell strainer. When necessary, non-viable cells were removed by density gradient centrifugation. The cell suspension was then incubated for 30 min at 37° C. in a tissue culture flask to remove macrophages by adherence. For epithelial tumors lymphocytes were removed by 30 minute incubation with CD2 antibody conjugated magnetic beads for T lymphocytes and CD19 antibody conjugated magnetic beads for B lymphocytes. Remaining macrophages were removed, if necessary, using CD14 antibody conjugated magnetic beads. The final cell suspension was plated into a 96-well half-area plate, 120 microliter aliquot per well. The plate was incubated overnight at 37° C. with 5% carbon dioxide humidified atmosphere. 5×10^4 to 1.5×10^5 cells were seeded per well depending on the cell volume to give adequate well-bottom coverage.
Within 24 to 48 hours of collection, the specimen was treated as follows in order to purify and isolate cells from solid tumors: • Take the specimen out of the transport tube. • Put in a petri dish in 13 ml of PBS+high concentration of antibiotics (200 units/ml Penicillin+200 μg/ml streptomycin) and take measurements and picture of the specimen. […] In that case, one may make the determination to do a “pre-filtration” using sterile gauze over a 50 ml tube. Then proceed with the cell strainer filtration process referenced above. • Centrifuge the filtered cell suspension 1500 RPM 5 min • Discard the supernatant. To the pellet, add 5 ml of red blood cell lysis solution (standard NH4Cl containing lysis solution: Nh4Cl0.15M+KHCO3 10 mM+EDTA-4Na 0.1 mM, pH 7.2), incubate 2-3 min and add 5 ml of RPMI 10% FBS. • Centrifuge 5 min 1500 RPM. Resuspend the pellet in RPMI 10% FBS (1-10 ml depending on the pellet size). • Collect the second fraction in the enzyme and repeat the steps above. • Check the viability of all fractions and pool. Do a cytospin stain with Wright Giemsa to verify the cell content of the population. NOTE: this is done numerous times during the process of purification. • 3) When necessary, non-viable cells were removed by density gradient centrifugation. • Density gradient centrifugation (optiprep): first layer=2 ml cells+4.45 ml optiprep 40% in RPMI, second layer=optiprep 22.5% in RPMI, 3rd layer=0.5 ml of RPMI. Centrifuge at 2000 RPM for 20 min • Collect the viable cell layer, add 10 ml of RPMI 10% FBS, centrifuge at 1500 RPM for 5 min • Resuspend the pellet in RPMI 10% FBS (volume depends on the pellet size and on the next step required). • If mucin is present in the specimen: resuspend the pellet in 10 ml of PBS+20 mM DTT and incubate at 4° C. for 30 min to disintegrate the mucin. Wash with RPMI 1500 rpm for 5 min Resuspend the pellet in RPMI 10% FBS. • If the specimen is highly necrotic with presence of debris: Percoll 20% in HBSS, centrifuge at 800×g for 10 min • 4) The cell suspension was then incubated for 20 min at 37° C. in a tissue culture flask to remove macrophages by adherence. • The size and quantity of the flask and the volume used depends on the amount of cells.

[2] = test system: neoplastic cells collected from spleen and abdominal tumor biopsy specimens; assay: MiCK assay, patient specific cancer cell testing (Example 10); type: cell-based, human
Method: The experiments were conducted on neoplastic cells collected from spleen and abdominal tumor biopsy specimens from a person. The tumor specimens were of an unknown primary. The experiment consisted of using a MiCK assay, according to the present disclosure, to test the effectiveness of 37 potential anti-cancer drugs, combinations of these drugs, and various concentrations of these drugs.
Apoptotic readings greater than 5.0KU in the MiCK assay are considered to be highly sensitive and are associated with a good clinical response. […] It should be noted that the alkylating agents cyclophosphamide and ifosfamide require hepatic metabolic transformation to their active metabolite, 4HC and 4HI respectively, and therefore cannot be tested directly in vitro. For the MiCK assay their active metabolites, 4HC and 4HI respectively were used.

[3] = KU compared per patient, % of 35 patients
[4] = person, tumor of unknown primary, maximum apoptotic response over the concentrations tested
[5] = KU compared per patient, % of 11 patients
[6] = KU compared per patient, % of 14 patients

For `CC(=O)O[C@@]12CO[C@@H]1C[C@H](O)[C@@]1(C)C(=O)[C@H](O)C3=C(C)[C@@H](OC(=O)[C@H](O)[C@@H](NC(=O)OC(C)(C)C)c4ccccc4)C[C@@](O)([C@@H](OC(=O)c4ccccc4)[C@H]21)C3(C)C` [Taxotere, docetaxel], the “Taxol and Taxotere < 1” value [1, 3] was “(14%)”, the “Taxotere = Taxol +/− 0.57 and both > 1” value [1, 3] was “(17%)” and the “Taxotere > Taxol by more than 0.57 and Taxotere > 1” value [1, 3] was “(37%)”. The “Taxotere > Taxol by more than 0.57 and Taxotere > 1” value ([1]; KU compared per patient, % of 35 patients, listed as docetaxel) was 37%, the “KU Mean” value [1] was 2.1 KU and the “KU Median” value [1] was 1.9 KU. The “Mean Difference (95% CI) of KU vs Abraxane” value ([1]; patient pairwise comparison, drug minus Abraxane) was 0.98 KU, the “Mean Difference (95% CI) of KU vs Taxol” value ([1]; patient pairwise comparison, drug minus Taxol) was 0.05 KU and the “Max Resp. (KU)” value [2, 4] was 2.3 KU.

In the case of `O=C1[O][Pt]2([NH][C@@H]3CCCC[C@H]3[NH]2)[O]C1=O` [Oxali, oxaliplatin], the “Carbo and Cisplatin and Oxali < 1” value [1, 5] is reported as “(9%)”, the “Max (Carbo or Cisplatin) = Oxali +/− 0.57 and both > 1” value [1, 5] is reported as “(36%)” and the “Max (Carbo or Cisplatin) > Oxali by more than 0.57 and Max (Carbo or Cisplatin) > 1” value [1, 5] is reported as “(36%)”. For the same compound, the “Oxali > Max (Carbo or Cisplatin) + 0.57” value [1, 5] was “(9%)”, the “KU Mean” value [1] was 1.9 KU and the “KU Median” value [1] was 1.8 KU. The “Mean Difference (95% CI) of KU vs Carbo” value ([1]; patient pairwise comparison) was 0.34 KU, the “% >1” value [1] was 82% and the “% >3” value [1] was 9%. For the same compound, the “Max Resp. (KU)” value [2] was 6.7 KU.

For `CC[C@]1(O)C[C@H]2CN(CCc3c([nH]c4ccccc34)[C@@](C(=O)OC)(c3cc4c(cc3OC)N(C=O)[C@H]3[C@@](O)(C(=O)OC)[C@H](OC(C)=O)[C@]5(CC)C=CCN6CC[C@]43[C@@H]65)C2)C1` [Vincristine, vincristine], the “KU Mean” value [1] was 1.1 KU, the “KU Median” value [1] was 1.0 KU and the “Max Resp. (KU)” value [2, 4] was 0.9 KU.

In the case of `CN(Cc1cnc2nc(N)nc(N)c2n1)c1ccc(C(=O)N[C@@H](CCC(=O)O)C(=O)O)cc1` [Methotrexate, methotrexate], the “KU Mean” value [1] is reported as 0.9 KU, the “KU Median” value [1] is reported as 0.9 KU and the “Max Resp. (KU)” value [2, 4] is reported as 0.8 KU.

`CC[C@]1(O)C[C@@H]2CN(CCc3c([nH]c4ccccc34)[C@@](C(=O)OC)(c3cc4c(cc3OC)N(C)[C@H]3[C@@](O)(C(=O)OC)[C@H](OC(C)=O)[C@]5(CC)C=CCN6CC[C@]43[C@@H]65)C2)C1` [Vnbl, Vinblastine] was tested, and the “KU Mean” value [1] was 1.8 KU, the “KU Median” value [1] was 1.5 KU and the “Mean Difference (95% CI) of KU vs Vincristine” value ([1]; patient pairwise comparison) was 0.14 KU. The “Max Resp. (KU)” value [2, 4] was 1.2 KU.

In the case of `CCC1=C[C@@H]2CN(C1)Cc1c([nH]c3ccccc13)[C@@](C(=O)OC)(c1cc3c(cc1OC)N(C)[C@H]1[C@@](O)(C(=O)OC)[C@H](OC(C)=O)[C@]4(CC)C=CCN5CC[C@]31[C@@H]54)C2` [Vinor, vinorelbine], the “Max (Vcr or Vnbl) > Vinor + 0.57” value [1, 6] is reported as “(0%)”, the “Vcr and Vnbl and Vinor < 1” value [1, 6] is reported as “(14%)” and the “Vinor = Max (Vcr or Vnbl) +/− 0.57 and both > 1” value [1, 6] is reported as “(36%)”. For the same compound, the “Vinor > Max (Vcr or Vnbl) by more than 0.57 and Vinroel > 1” value [1, 6] was “(29%)”, the “KU Mean” value [1] was 1.8 KU and the “KU Median” value [1] was 1.5 KU. The “Mean Difference (95% CI) of KU vs Vincristine” value ([1]; patient pairwise comparison) was 0.63 KU, the “Mean Difference (95% CI) of KU vs Vincristine” value ([1]; patient pairwise comparison, listed as vinorelbine) was “APOP>vincristine” and the “Mean Difference (95% CI) of KU vs Vnbl” value ([1]; patient pairwise comparison, drug minus Vnbl) was 0.14 KU. The “Max Resp. (KU)” value [2, 4] was 3.1 KU.

In the case of `O=c1[nH]cc(F)c(=O)[nH]1` [5FU, 5-fluorouracil], the “5fu > Xeloda + 0.57” value ([1]; KU compared per patient, % of 13 patients) is reported as 2/13 (15%), the “KU Mean” value [1] is reported as 0.7 KU and the “KU Median” value [1] is reported as 0.6 KU. For the same compound, the “Max Resp. (KU)” value [2, 4] was 0.3 KU.

In the case of `N.N.[Cl][Pt][Cl]` [Cisplatin], the “Cisplatin > Carbo + 0.57” value ([1]; KU compared per patient, % of 24 patients) is reported as “(58%)”, the “KU Mean” value [1] is reported as 2.2 KU and the “KU Median” value [1] is reported as 2.3 KU. For the same compound, the “Mean Difference (95% CI) of KU vs Carbo” value ([1]; patient pairwise comparison) was 0.88 KU, the “Mean Difference (95% CI) of KU vs Carbo” value ([1]; patient pairwise comparison, listed as cisplatin) was “APOP>carboplatin” and the “Mean Difference (95% CI) of KU vs Oxali” value ([1]; patient pairwise comparison, drug minus Oxali) was 0.33 KU. For the same compound, the “% >1” value [1] was 78%, the “% >3” value [1] was 22% and the “efficacy for this patient, in words” value ([2]; person, tumor of unknown primary, single agents) was “single drug with the most efficacy”.
